Patent US6583156B1 (Vernalis Research Limited, priority 1998, dated 2003)

What was measured:
[1] = target: human adenosine A2A receptors (Homo sapiens, UniProt P29274); assay: Binding affinities at hA2A receptors, displacement of [3H]-CGS 21680; conditions: in vitro binding, radioligand [3H]-CGS 21680
Source text: The compounds were examined in an assay measuring in vitro binding to human adenosine A2A receptors by determining the displacement of the adenosine A2A receptor selective radioligand [^3H]-CGS 21680 using standard techniques.

[2] = test system: haloperidol-induced hypolocomotion; assay: Haloperidol-induced hypolocomotion model; type: in vivo; conditions: mice, 10 mg/kg intraperitoneally, haloperidol 0.2 mg/kg
Source text: This approach is also considered a valid method for screening drugs with potential antiparkinsonian effects. Thus, the ability of novel adenosine antagonists to block haloperidol-induced deficits in locomotor activity in mice can be used to assess both in vivo and potential antiparkinsonian efficacy.
Female TO mice (25-30 g) obtained from TUCK, UK, are used for all experiments. Animals are housed in groups of 8 [cage size−40 (width)×40 (length)×20 (height)cm] under 12 hr light/dark cycle (lights on 08:00 hr), in a temperature (20±2° C.) and humidity (55±15%) controlled environment. Animals have free access to food and water, and are allowed at least 7 days to acclimatize after delivery before experimental use.
Liquid injectable haloperidol (1 ml Serenance ampoules from Baker Norton, Harlow, Essex, each containing haloperidol BP 5 mg, batch # P424) are diluted to a final concentration of 0.02 mg/ml using saline. Test compounds are typically prepared as aqueous suspensions in 8% Tween. All compounds are administered intraperitoneally in a volume of 10 ml/kg.
1.5 hours before testing, mice are administered 0.2 mg/kg haloperidol, a dose that reduces baseline locomotor activity by at least 50%. […] Horizontal locomotor activity is determined by placing the cages within a frame containing a 3×6 array of photocells linked to a computer, which tabulates beam breaks. […]

[3] = test system: catalepsy; conditions: cited from earlier work
[4] = cited from earlier work

human adenosine A2A receptors, sequence (P29274 whole entry): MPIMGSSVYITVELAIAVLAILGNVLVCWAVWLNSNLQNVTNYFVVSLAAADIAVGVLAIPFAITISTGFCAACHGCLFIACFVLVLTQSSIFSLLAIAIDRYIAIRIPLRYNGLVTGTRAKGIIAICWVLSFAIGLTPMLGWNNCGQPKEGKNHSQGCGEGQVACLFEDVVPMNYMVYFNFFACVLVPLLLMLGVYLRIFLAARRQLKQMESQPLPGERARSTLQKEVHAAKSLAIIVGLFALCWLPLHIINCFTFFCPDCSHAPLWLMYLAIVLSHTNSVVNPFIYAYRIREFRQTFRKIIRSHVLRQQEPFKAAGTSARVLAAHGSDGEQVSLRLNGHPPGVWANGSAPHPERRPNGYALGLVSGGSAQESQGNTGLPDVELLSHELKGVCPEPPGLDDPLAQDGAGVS

Ki [1] [nM] | melting point [°C] | Structure (SMILES) | also measured
1360 | 128.8 to 129.4 | OC1(c2cc(C(F)(F)F)nc3c(C(F)(F)F)cccc23)CCCc2ccccc21 (centres unmarked) [Example 11, 1-(2,8-Bis(trifluoromethyl)-4-quinolinyl)-1,2,3,4-tetrabydro-1-naphthol] | 
574 | 113 to 114 | Cc1cccc2c(C(O)c3ccsc3)cc(C(F)(F)F)nc12 (stereo not drawn) [Example 28, 8-Methyl-α-(3-thienyl)-2-trifluoromethyl-4-quinolinemethanol] | 
1700 | 151 to 152 | OC(c1ccccc1)c1cc(C(F)(F)F)nc2c(C(F)(F)F)cccc12 (stereo not drawn) [Example 1, 2,8-Bis(trinfluoromethyl)-α-phenyl-4-quinolinemethanol] | 
 | > 250 | Oc1cc(C(O)C2CCCCC2)c2ccccc2n1 (stereo not drawn) [Example 86, α-Cyclohexyl-2-hydroxy-4-quinolinemethanol] | reversal of haloperidol-induced hypolocomotion [2]: significantly reversed
701 | 132 to 134 | COc1ccccc1C(O)c1cc(C(F)(F)F)nc2c(C(F)(F)F)cccc12 (centres unmarked) [Example 23] | 
649 | 151.2 to 151.7 | OC(c1c(Cl)cccc1Cl)c1cc(C(F)(F)F)nc2c(C(F)(F)F)cccc12 (stereo not drawn) [Example 20, 2,8-Bis(trifluoromethyl)-α-(2,6-dichlorophenyl)-4-quinolinemethanol] | 
1790 | 125.1 to 125.8 | Cc1c(C(F)(F)F)nc2c(C(F)(F)F)cccc2c1C(O)c1cccs1 (stereo not drawn) [Example 16, 2,8-Bis(trifluoromethyl)-3-methyl-α-(2-thienyl)-4-quinolinemethanol] | 
1920 | 119.5 to 120.8 | OC(c1ccccc1F)c1cc(C(F)(F)F)nc2c(C(F)(F)F)cccc12 (stereo not drawn) [Example 22, 2,8-Bis(trifluoromethyl)-α-(2-fluorophenyl)-4-quinolinemethanol] | 
743 | 147 to 149 | OC(c1ccccc1Br)c1cc(C(F)(F)F)nc2c(C(F)(F)F)cccc12 (stereo not drawn) [Example 21, 2,8-Bis(trifluoromethyl)-α-(2-bromophenyl)-4-quinolinemethanol] | 
1770 | 102 to 104 | CCc1cccc2c(C(O)c3ccccc3)cc(C(F)(F)F)nc12 (stereo not drawn) [Example 31, 8-Ethyl-α-phenyl-2-trifluoromethy-4-quinolinemethanol] | 
1130 |  | Cc1cccc2c(C(O)c3ccccc3Cl)cc(C(F)(F)F)nc12 (stereo not drawn) [Example 27, α-(2-Chlorophenyl)-8-methyl-2-trinfluoromethyl-4-quinolinemethanol] | 
1110 |  | Cc1cccc2c(C(O)c3ccccc3)cc(C(F)(F)F)nc12 (stereo not drawn) [Example 26, 8-Methyl-α-phenyl-2-trifluoromethyl-4-quinolinemethanol] | 
 |  | CCCn1c(=O)c2c(nc(/C=C/c3ccc(OC)c(OC)c3)n2C)n(CCC)c1=O [KF 17837, (E)-8-(3,4-dimethoxystyryl)-1,3-dipropyl-7-methylxanthine] | anticataleptic effects of a subthreshold dose of L-DOPA plus benserazide ([3]; in vivo): potentiated; catalepsy induced by haloperidol and reserpine ([3]; in vivo): reduced; cataleptic responses induced by intracerebroventricular CGS 21680 ([3]; oral administration): significantly ameliorated
852 |  | OC(c1cc(C(F)(F)F)nc2c(C(F)(F)F)cccc12)C1CCCCC1 (stereo not drawn) [Example 7, 2,8-Bis(trifluoromethyl)-α-clohexyl-4-quinolinemethanol] | 
1900 |  | OC1Cc2ccccc2C1c1cc(C(F)(F)F)nc2c(C(F)(F)F)cccc12 (centres unmarked) [Example 12, 1-(2,8-Bis(trifluorometbyl)-4-quinolinyl)-2-indanol] | 
 |  | Cn1c(=O)c2[nH]cnc2n(C)c1=O [theophylline, 1,3-dimethylxanthine] | mean objective disability scores ([4]; 15 Parkinsonian patients, up to 12 weeks, 150 mg/day): significant improvements; serum theophylline levels ([4]; slow release oral preparation 150 mg/day, after one week, Parkinsonian patients): 4.44 mg/L
